# Experimental data published in publication PMC9106035, “Synthesis, X-ray Structure and Biological Studies of New Self-Assembled Cu(II) Complexes Derived from s-Triazine Schiff Base Ligand” (Molecules, 2022).
# Columns and labels:
# [1] = DPPH radical scavenging assay; type: biochemical
# Method in brief: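 Methanolic compound solution was added to 0.004 %w/v methanolic DPPH, and absorbance at 515 nm was followed each minute until stable at 16 min. Percent inhibition was taken as control absorbance at 0 min versus sample at 16 min, in triplicate. IC50 was estimated from dose-response plots, with ascorbic acid as reference.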
# [2] = system: lung carcinoma A-549 cell line; experiment: Anticancer activity, MTT viability assay; type: cell-based
# [3] = system: normal human lung fibroblast MRC-5 cells; experiment: Cytotoxic activity on normal cells, MTT viability assay; type: cell-based; conditions: Homo sapiens, MRC5, MRC-5, Table S10, read-out: Inhibitory %
# Protocol: In this regard, the selectivity index (SI) was calculated as the ratio of cytotoxic effect on the normal cell line to the cytotoxic effect on the cancer cell line.
# Method S4 Evaluation of Cytotoxic activity
# The cells were propagated in Dulbecco’s modified Eagle’s medium (DMEM) supplemented with 10% heat-inactivated fetal bovine serum, 1 % L-glutamine, HEPES buffer and 50µg/mL Gentamycin. All cells were maintained at 37 °C in a humidified atmosphere with 5% CO2 and were subcultured tw o times a week.
# Cytotoxicity evaluation using viability assay
# For cytotoxicity assay, the cells were seeded in 96-well plate at a cell concentration of 1×10^4 cells per well in 100µl of growth medium. Fresh medium containing different concentrations of the test sample was added after 24 h of seeding. Serial two-fold dilutions of the tested chemical compound were added to confluent cell monolayers dispensed into 96-well, flat-bottomed microtiter plates (Falcon, NJ, USA) using a multichannel pipette. The microtiter plates were incubated at 37 °C in a humidified incubator with 5% CO2 for a period of 24 h. Three wells were used for each concentration of the test sample. Control cells were incubated without test sample and with or without DMSO. The little percentage of DMSO present in the […]
# cells for at 37°C, for 24 h, the viabl e cells yield was determined by the MTT test.
# Briefly, the media was removed from the 96 well plate and replaced with 100 µL of fresh culture DMEM m edium without phenol red then 10 µL of the 12 mM MTT stock solution (5 mg of MTT in 1 mL of PBS) to each well including the untreated controls. The 96 well plates were then incubated at 37°C and 5% CO2 for 4 hours. An 85 µL aliquot of the media was removed from t he wells, and 50 µL of DMSO was added to each well and mixed thoroughly with the pipette and incubated at 37°C for 10 min. Then, the optical density was measured at 590 nm with the microplate reader (SunRise, TECAN, Inc, USA) to determine the number of viable cells and the percentage of viability was calculat ed as [(ODt/ODc)]x100% where ODt i s the mean optical density of wells treated with the tested s ample and ODc is the mean optical density of untreated cells. The relation between surviving cells and drug concentration is plotted to get the survival curve of each tumor cell line after treatment with the specified compound. The 50% inhibitory concentration (IC50), the concentration required to cause t oxic effects in 50% of intact cells, was estimated from graphic plots of the dose response curve for each conc. using Graphpad Prism software (San Diego, […]
smiles,measurement,setting,value
"CC(=NNc1nc(N2CCOCC2)nc(N2CCOCC2)n1)c1ccccc1N [DMAT, 2-(1-(2-(4,6-dimorpholino-1,3,5-triazin-2-yl)hydrazono)ethyl)aniline]",DPPH Scavenging %,[1]; Conc. 2.5 μg/mL,20.79%
same,DPPH Scavenging %,[1]; Conc. 5 μg/mL,28.65%
same,DPPH Scavenging %,[1]; Conc. 10 μg/mL,35.17%
same,DPPH Scavenging %,[1]; Conc. 20 μg/mL,54.23%
same,DPPH Scavenging %,[1]; Conc. 40 μg/mL,70.89%
same,DPPH Scavenging %,[1]; Conc. 80 μg/mL,79.28%
same,DPPH Scavenging %,[1]; Conc. 160 μg/mL,86.59%
same,DPPH Scavenging %,[1]; Conc. 320 μg/mL,91.37%
same,DPPH Scavenging %,[1]; Conc. 640 μg/mL,94.08%
same,DPPH Scavenging %,[1]; Conc. 1280 μg/mL,95.31%
same,IC50 (DPPH scavenging),[1]; antioxidant activity,17.83 ± 0.65 µg/mL
same,SI = CC50/IC50,[2]; CC50 (MRC-5) / IC50 (A-549),1.30
same,viability at 2.5 µM,"[2]; Homo sapiens, A549, A-549, sample conc. 2.5 µM, Table S5",100%
same,inhibition at 2.5 µM,"[2]; Homo sapiens, A549, A-549, sample conc. 2.5 µM, Table S5, read-out: Inhibitory %",0%
same,viability at 5 µM,"[2]; Homo sapiens, A549, A-549, sample conc. 5.0 µM, Table S5",100%
same,inhibition at 5 µM,"[2]; Homo sapiens, A549, A-549, sample conc. 5.0 µM, Table S5, read-out: Inhibitory %",0%
same,viability at 9.8 µM,"[2]; Homo sapiens, A549, A-549, sample conc. 9.8 µM, Table S5",100%
same,inhibition at 9.8 µM,"[2]; Homo sapiens, A549, A-549, sample conc. 9.8 µM, Table S5, read-out: Inhibitory %",0%
same,viability at 19.6 µM,"[2]; Homo sapiens, A549, A-549, sample conc. 19.6 µM, Table S5",100%
same,inhibition at 19.6 µM,"[2]; Homo sapiens, A549, A-549, sample conc. 19.6 µM, Table S5, read-out: Inhibitory %",0%
same,viability at 39.1 µM,"[2]; Homo sapiens, A549, A-549, sample conc. 39.1 µM, Table S5",100%
same,inhibition at 39.1 µM,"[2]; Homo sapiens, A549, A-549, sample conc. 39.1 µM, Table S5, read-out: Inhibitory %",0%
same,viability at 78.4 µM,"[2]; Homo sapiens, A549, A-549, sample conc. 78.4 µM, Table S5",100%
same,inhibition at 78.4 µM,"[2]; Homo sapiens, A549, A-549, sample conc. 78.4 µM, Table S5, read-out: Inhibitory %",0%
same,viability at 156.8 µM,"[2]; Homo sapiens, A549, A-549, sample conc. 156.8 µM, Table S5",98%
same,inhibition at 156.8 µM,"[2]; Homo sapiens, A549, A-549, sample conc. 156.8 µM, Table S5, read-out: Inhibitory %",1.96%
same,viability at 313.7 µM,"[2]; Homo sapiens, A549, A-549, sample conc. 313.7 µM, Table S5",82.7%
same,inhibition at 313.7 µM,"[2]; Homo sapiens, A549, A-549, sample conc. 313.7 µM, Table S5, read-out: Inhibitory %",17.3%
same,viability at 627.4 µM,"[2]; Homo sapiens, A549, A-549, sample conc. 627.4 µM, Table S5",39.6%
same,inhibition at 627.4 µM,"[2]; Homo sapiens, A549, A-549, sample conc. 627.4 µM, Table S5, read-out: Inhibitory %",60.4%
same,viability at 1254.8 µM,"[2]; Homo sapiens, A549, A-549, sample conc. 1254.8 µM, Table S5",17.6%
same,inhibition at 1254.8 µM,"[2]; Homo sapiens, A549, A-549, sample conc. 1254.8 µM, Table S5, read-out: Inhibitory %",82.4%
same,IC50,"[2]; Homo sapiens, A549, A-549 cells, 24 h, MTT",551 µM
same,inhibition at 2.5 µM,[3]; sample conc. 2.5 µM,0%
same,inhibition at 5 µM,[3]; sample conc. 5.0 µM,0%
same,inhibition at 9.8 µM,[3]; sample conc. 9.8 µM,0%
same,inhibition at 19.6 µM,[3]; sample conc. 19.6 µM,0%
same,inhibition at 39.1 µM,[3]; sample conc. 39.1 µM,0%
same,inhibition at 78.4 µM,[3]; sample conc. 78.4 µM,0%
same,inhibition at 156.8 µM,[3]; sample conc. 156.8 µM,0.15%
same,inhibition at 313.7 µM,[3]; sample conc. 313.7 µM,10.7%
same,inhibition at 627.4 µM,[3]; sample conc. 627.4 µM,46.1%
same,inhibition at 1254.8 µM,[3]; sample conc. 1254.8 µM,73.9%
